From PubChem BioAssay (NCI)
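Growth conditions: 96-well plates. Treatment: test compound, 48 hours, 5 concentrations. Analysis: linear interpolation between bracketing concentrations; unreached endpoints set to highest concentration. At the GI50, growth is halved. At the TGI there is no net growth.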

Tests used:
Assay in all cases: NCI tumour cell line growth inhibition, 48 h
OVCAR-4 ovarian = test system: OVCAR-4 ovarian
SW-620 colon = test system: SW-620 colon
HOP-62 NSCLC = test system: HOP-62 NSCLC
NCI-H23 lung = test system: NCI-H23 lung
U251 CNS = test system: U251 CNS
OVCAR-8 ovarian = test system: OVCAR-8 ovarian
A549 NSCLC = test system: A549 NSCLC
HL-60(TB) leukemia = test system: HL-60(TB) leukemia
MALME-3M melanoma = test system: MALME-3M melanoma
MCF7 breast = test system: MCF7 breast
M14 melanoma = test system: M14 melanoma
SNB-75 CNS = test system: SNB-75 CNS
K-562 leukemia = test system: K-562 leukemia
NCI-H226 lung = test system: NCI-H226 lung
SF-268 CNS = test system: SF-268 CNS
NCI/ADR-RES ovarian = test system: NCI/ADR-RES ovarian
SF-295 CNS = test system: SF-295 CNS

| Structure (SMILES) | TGI (OVCAR-4 ovarian) [µM] | TGI (SW-620 colon) [µM] | TGI (HOP-62 NSCLC) [µM] | TGI (NCI-H23 lung) [µM] | TGI (U251 CNS) [µM] | TGI (OVCAR-8 ovarian) [µM] | TGI (A549 NSCLC) [µM] | TGI (HL-60(TB) leukemia) [µM] | TGI (MALME-3M melanoma) [µM] | TGI (MCF7 breast) [µM] | TGI (M14 melanoma) [µM] | TGI (SNB-75 CNS) [µM] | TGI (K-562 leukemia) [µM] | TGI (NCI-H226 lung) [µM] | TGI (SF-268 CNS) [µM] | TGI (NCI/ADR-RES ovarian) [µM] | TGI (SF-295 CNS) [µM] | GI50 (NCI/ADR-RES ovarian) [µM] |
| --- | --- | --- | --- | --- | --- | --- | --- | --- | --- | --- | --- | --- | --- | --- | --- | --- | --- | --- |
| COC(=O)c1cccc(C)c1C1CN=NC12Cc1cc(C)cc(C)c1C2=O (configuration not stated) | > 100 | > 100 | > 100 | > 100 | > 100 | > 100 | > 100 | 47.5 | > 100 | > 100 | 93.6 | 83.1 | > 100 | > 100 | > 100 | > 100 | – | – |
| CCOC(=O)CCC(NC(=O)C(N)Cc1ccc(N(CCCl)CCCl)cc1)C(=O)OCC (configuration not stated) | 1.38 | 5.3 | 7.9 | 1.68 | 7.41 | 2.4 | > 33.4 | 0.586 | 0.747 | 9.5 | 1.39 | 2.79 | 12.7 | 20.7 | 4 | 19 | 11.7 | 3.52 |
| N#CSC#CCCC#CSC#N | 58.5 | 38.7 | 33.7 | 42.1 | 30.5 | 60.7 | 42 | > 100 | 34.3 | 48.2 | 26.4 | – | > 100 | 58.2 | > 100 | 74.9 | 32.7 | – |
| O=C1c2cccc3cc([N+](=O)[O-])cc(c23)C(=O)N1Nc1ccc([N+](=O)[O-])cc1[N+](=O)[O-] | > 46.4 | 25.3 | 50.5 | 35.7 | 29.3 | 21 | > 31.6 | 27.5 | > 31.6 | > 31.6 | > 74.9 | > 31.6 | > 31.6 | > 31.6 | > 31.6 | > 31.6 | > 31.6 | – |
| C=C1C(=O)O[C@@H]2/C=C(C)/C=C\[C@@H]3O[C@@]3(C)C[C@@H](O)C12 (some centres not stated) | 38.2 | 17.2 | > 100 | 33.3 | 34.6 | 55.1 | > 100 | 8.93 | 30.9 | 26.4 | 49.2 | > 100 | 20.6 | 29.7 | 84.7 | 33.4 | > 100 | – |
| CCN(CC)CCCNC(=O)c1cc(-c2nccn2C)nc2ccccc12 | > 100 | > 100 | > 100 | > 100 | > 100 | > 100 | > 100 | > 100 | > 100 | > 100 | > 100 | > 100 | > 100 | > 100 | > 100 | > 100 | – | – |
| COc1cc(S(=O)(=O)Nc2ccc(-c3csc(N4C(=O)CSC4c4cccc(Oc5ccccc5)c4)n3)cc2)ccc1Cl (configuration not stated) | > 100 | > 100 | > 100 | > 100 | – | > 100 | – | 48.9 | > 100 | 51.7 | > 100 | > 100 | > 100 | > 100 | > 100 | > 100 | > 100 | – |
| COc1ccc(C(C)NNC(=O)c2ccncc2)cc1OC (configuration not stated) | > 100 | > 100 | > 100 | > 100 | > 100 | > 100 | > 100 | > 100 | > 100 | > 100 | > 100 | > 100 | > 100 | > 100 | > 100 | > 100 | > 100 | – |
| COc1ccc2oc3c(C)cc4c(OC)nnc(OC)c4c3c2c1 | > 100 | > 100 | > 100 | > 100 | 14.8 | > 100 | > 100 | > 100 | > 100 | > 100 | > 100 | > 100 | > 100 | > 100 | > 100 | > 100 | > 100 | – |
| Cc1ccc2nc(-c3ccccc3)cc(=O)n2c1 | > 100 | > 100 | > 100 | > 100 | > 100 | > 100 | > 100 | > 100 | > 100 | > 100 | > 100 | > 100 | > 100 | > 100 | > 100 | > 100 | > 100 | – |
| O=C1c2ccccc2C(=O)c2c(/C=C\N3CCCCC3)ccnc21 | 28.4 | 4.48 | 13.9 | 1.31 | 14.5 | 17.5 | 5.84 | 27.8 | 1.67 | 4.01 | 1.26 | 7.2 | 36 | 8.31 | 39.9 | > 95.4 | 5.25 | – |
| O=c1c(F)cn(Cc2c(Cl)cccc2Cl)c(=O)n1Cc1c(Cl)cccc1Cl | > 31.6 | > 31.6 | > 31.6 | > 31.6 | > 31.6 | > 31.6 | > 31.6 | > 31.6 | > 31.6 | > 31.6 | > 31.6 | > 31.6 | > 31.6 | > 100 | > 31.6 | > 31.6 | > 31.6 | – |
| CC1=C/C(=N\NC(N)=S)C(C(O)(C(F)(F)F)C(F)(F)F)C(C)(C)C1 (configuration not stated) | > 10 | > 10 | > 10 | > 10 | > 10 | > 10 | > 10 | > 10 | > 10 | > 10 | > 10 | > 10 | > 10 | > 10 | > 10 | > 10 | > 10 | – |
